Read-outs that look alike come from different tables or passages of the source.
Tests used:
[1] = tested on: patients with geographic atrophy (GA) secondary to age-related macular degeneration (AMD); experiment: OAKS Phase 3 study: GA lesion growth in study eye by fundus autofluorescence; type: in vivo, human
Excerpt: This Example describes 12-month results from two Phase 3 multi-center, randomized, double-masked, sham-controlled studies (“DERBY” and “OAKS”) to compare the efficacy and safety of intravitreal APL-2 (pegcetacoplan, also referred to as “Study Drug” in this Example) therapy with sham injections in patients with geographic atrophy (GA) secondary to age-related macular degeneration (AMD).
To participate in the studies, subjects must have been diagnosed with GA of the macula secondary to AMD in the study eye. At screening, male and female subjects were required to fulfill all of the following inclusion criteria to be eligible for participation in the study. If both eyes met the inclusion criteria, the eye with the worst normal luminance visual acuity at the screening visit was designated as the study eye. If both eyes had the same visual acuity, the right eye was selected as the study eye. Ocular-specific inclusion criteria applied to the study eye only, unless otherwise specified.
The design of the DERBY and OAKS studies are schematically depicted in FIG. 2. […] As part of the screening process, the reading center evaluated FAF, OCT, Digital Color Fundus Photograph (DCFP), Near Infrared Reflectance (NIR), and fluorescein angiography (FA) to provide an objective assessment of subject eligibility. […]
Subjects were analyzed in the treatment arm assigned at randomization. […]

[2] = tested on: patients with geographic atrophy (GA) secondary to age-related macular degeneration (AMD); experiment: DERBY and OAKS combined: safety; settings: for CNV type on FA at eAMD study visit: Active leakage with low likelihood of CNV / CNV type on FA at eAMD study visit: Classic / CNV type on FA at eAMD study visit: Classic + occult / CNV type on FA at eAMD study visit: Occult / investigator-reported events of eAMD, double-layer sign (DLS) present in the study eye / investigator-reported events of eAMD, CNV present in the fellow eye / investigator-reported events of eAMD, CNV absent in the fellow eye / investigator-reported events of eAMD, double-layer sign (DLS) absent in the study eye: through month 18; for Investigator-determined new-onset eAMD in fellow eyes: through 18 months; for combined rate of new-onset exudations: month 24
Method: All randomized subjects returned every month to the clinical site for assessments and additional pegcetacoplan or sham injections according to their randomization scheme until Month 12. From Month 12 onwards, subjects return to the clinical site based on their randomized treatment schedule (monthly or EOM) and follow the treatment regimen and assessments outlined in the Visit Schedule until Month 24. Safety was assessed throughout the study by a number of evaluations including: monitoring of AEs, preinjection and postinjection monitoring, blood and urine samples collected, physical examination, vital signs, and follow-up phone calls. Blood samples were also be collected for anti-therapeutic antibodies, genotyping, and clinical repository (if the subject consented to this portion).
The Safety set consisted of all subjects randomized who received at least one injection of pegcetacoplan or sham. Subjects were analyzed according to the actual treatment received. […] This population was used for all safety analyses.

patients with GA = settings: FILLY, month 12, cited from earlier work
[3] = tested on: patients with geographic atrophy (GA) secondary to age-related macular degeneration (AMD); experiment: OAKS Phase 3 study: GA lesion growth in study eye by fundus autofluorescence; type: in vivo, human; settings: for reduction in GA lesion growth from baseline compared to sham: over 24 months; for reduction in lesion growth in the study eye versus the untreated study eye, after adjusting for sham / reduction in lesion growth in the study eye versus the untreated study eye: bilateral GA; for reduction in lesion growth in the study eye versus the untreated study eye, after adjusting for sham / reduction in lesion growth in the study eye versus the untreated study eye / percentage reduction versus sham pooled: 18 months
[4] = combined, PEOM (every other month), N=21 events
[5] = combined, PM (monthly), N=26 events
[6] = combined, between months 18 and 24
[7] = post-hoc quartiles of GA lesion growth over 18 months (FIG. 27)

Poly(oxy-1,2-ethanediyl), α-hydro-ω-hydroxy-, 15,15′-diester with N-acetyl-L-isoleucyl-L-cysteinyl-L-valyl-1-methyl-L-tryptophyl-L-glutaminyl-L-α-aspartyl-L-tryptophylglycyl-L-alanyl-L-histidyl-L-arginyl-L-cysteinyl-L-threonyl-2-[2-(2-aminoethoxy) ethoxy]acetyl-N^6-carboxy-L-lysinamide cyclic (2->12)-(disulfide) [pegcetacoplan]
reduction in GA lesion growth versus sham ([1]; distance ≤250 microns, every other month, p=0.0008): 19%
reduction in GA lesion growth versus sham ([1]; lesion distance to foveal center point >250 microns, monthly, p=0.0012): 30%
tolerability ([2]; both Phase 3 studies, 12 months): well tolerated
events of retinal vasculitis or retinal vein occlusion ([2]; combined, 12 months): No events
intraocular inflammation events ([2]; combined, 12 months, thirteen events): 0.21 % per injection
CNV type on FA at eAMD study visit: Active leakage with low likelihood of CNV [2, 4]: 0 n (%)
CNV type on FA at eAMD study visit: Classic [2, 4]: 1 (4,8%) n (%)
CNV type on FA at eAMD study visit: Classic + occult [2, 4]: 0 n (%)
CNV type on FA at eAMD study visit: Occult [2, 4]: 20 (95.2%) n (%)
Investigator-determined new-onset eAMD in fellow eyes ([2]; combined, PEOM (every other month), 339 patients without baseline fellow eye CNV): 13 (3.8%) n (%)
CNV type on FA at eAMD study visit: Active leakage with low likelihood of CNV [2, 5]: 3 (11.5%) n (%)
CNV type on FA at eAMD study visit: Classic [2, 5]: 1 (3.8%) n (%)
CNV type on FA at eAMD study visit: Classic + occult [2, 5]: 0 n (%)
CNV type on FA at eAMD study visit: Occult [2, 5]: 22 (84.6%) n (%)
Investigator-determined new-onset eAMD in fellow eyes ([2]; combined, PM (monthly), 335 patients without baseline fellow eye CNV): 12 (3.6%) n (%)
cases of endophthalmitis [2, 6]: No cases
serious adverse events of ischemic optic neuropathy [2, 6]: no serious adverse events
pooled rate of new-onset exudations (investigator-determined eAMD), patients ([2]; combined, every other month, 12 months): 4.1%
rate of new-onset exudations ([2]; combined, every other month, month 18, 26/420 patients): 6.2%
combined rate of new-onset exudations ([2]; combined, every other month): 6.7%
investigator-reported events of eAMD, double-layer sign (DLS) present in the study eye ([2]; combined, every other month, 6/73 patients): 8.2%
investigator-reported events of eAMD, CNV present in the fellow eye ([2]; combined, every other month, 8/81 patients): 9.9%
investigator-reported events of eAMD, CNV absent in the fellow eye ([2]; combined, every other month, 18/338 patients): 5.3%
investigator-reported events of eAMD, double-layer sign (DLS) absent in the study eye ([2]; combined, every other month, 20/345 patients): 5.8%
events of retinal vasculitis or retinal vein occlusion ([2]; combined, month 18): No events
rate of intraocular inflammation ([2]; combined, month 18): 0.23 % per injection
pooled rate of new-onset exudations (investigator-determined eAMD), patients ([2]; combined, monthly, 12 months): 6.0%
rate of new-onset exudations ([2]; combined, monthly, month 18, 40/419 patients): 9.5%
combined rate of new-onset exudations ([2]; combined, monthly): 11.9%
investigator-reported events of eAMD, double-layer sign (DLS) present in the study eye ([2]; combined, monthly, 8/79 patients): 10.1%
investigator-reported events of eAMD, CNV present in the fellow eye ([2]; combined, monthly, 8/84 patients): 9.5%
investigator-reported events of eAMD, CNV absent in the fellow eye ([2]; combined, monthly, 32/335 patients): 9.6%
investigator-reported events of eAMD, double-layer sign (DLS) absent in the study eye ([2]; combined, monthly, 32/336 patients): 9.5%
events of occlusive vasculitis or retinitis ([2]; combined, over 24 months): No events
rate of intraocular inflammation ([2]; combined, over 24 months): 0.24 % per injection
reduction in change from baseline in square root GA lesion size vs sham (patients with GA; every other month, p=0.067): 20%
reduction in change from baseline in square root GA lesion size vs sham (patients with GA; monthly, p=0.008): 29%
reduction of GA lesion growth versus sham ([3]; EOM, months 18-24, p=0.0007): 25%
reduction in GA lesion growth from baseline compared to sham ([3]; EOM, p 0.0002 nominal): 18%
reduction in lesion growth in the study eye versus the untreated study eye, after adjusting for sham ([3]; every other month): 15%
reduction in lesion growth in the study eye versus the untreated study eye ([3]; every other month, p=0.1274): 7%
reduction in lesion growth in the study eye versus the untreated study eye, after adjusting for sham ([3]; monthly): 26%
reduction in lesion growth in the study eye versus the untreated study eye ([3]; monthly, p<0.0001): 19%
reduction in GA lesion growth versus sham ([3]; distance >250 microns, every other month, p=0.1203): 15%
reduction in GA lesion growth versus sham ([3]; distance ≤250 microns, monthly, p=0.0002): 22%
percentage reduction versus sham pooled ([3]; every other month, >50 microns, p=0.0430): 17%
percentage reduction versus sham pooled ([3]; every other month, >100 microns, p=0.0338): 18%
percentage reduction versus sham pooled ([3]; every other month, >150 microns, p=0.0575): 17%
percentage reduction versus sham pooled ([3]; every other month, >200 microns, p=0.1002): 15%
reduction in GA lesion growth vs pooled sham ([3]; every other month, month 12, p=0.0052): 16%
reduction in extrafoveal GA lesion growth vs pooled sham ([3]; every other month, month 18, p 0.0422): 17%
reduction in GA lesion growth, covariate-adjusted post-hoc analysis ([3]; every other month, month 18, p=0.0002): 18%
reduction in foveal GA lesion growth, covariate-adjusted ([3]; every other month, month 18, p=0.0008): 19%
reduction in GA lesion growth vs pooled sham ([3]; every other month, month 18, p=0.0018 nominal): 16%
reduction in foveal GA lesion growth vs pooled sham ([3]; every other month, month 18, p=0.0020): 19%
reduction in extrafoveal GA lesion growth, covariate-adjusted ([3]; every other month, month 18, p=0.0673): 15%
percentage reduction versus sham pooled ([3]; monthly, >100 microns, p<0.0001): 34%
percentage reduction versus sham pooled ([3]; monthly, >150 microns, p<0.0001): 34%
percentage reduction versus sham pooled ([3]; monthly, >200 microns, p<0.0001): 34%
percentage reduction versus sham pooled ([3]; monthly, distance to foveal center point >50 microns, p<0.0001): 33%
reduction in GA lesion growth vs pooled sham ([3]; monthly, month 12, p=0.0003): 22%
reduction in GA lesion growth, covariate-adjusted post-hoc analysis ([3]; monthly, month 18, p<0.0001): 26%
reduction in extrafoveal GA lesion growth vs pooled sham ([3]; monthly, month 18, p<0.0001): 33%
reduction in extrafoveal GA lesion growth, covariate-adjusted ([3]; monthly, month 18, p<0.0001): 33%
reduction in GA lesion growth vs pooled sham ([3]; monthly, month 18, p<0.0001 nominal): 22%
reduction in foveal GA lesion growth, covariate-adjusted ([3]; monthly, month 18, p=0.0044): 19%
reduction in foveal GA lesion growth vs pooled sham ([3]; monthly, month 18, p=0.0105): 18%
reduction of GA lesion growth versus sham ([3]; monthly, months 18-24, p=0.0080): 24%
reduction in GA lesion growth from baseline compared to sham ([3]; monthly, p<0.0001 nominal): 22%
decrease of patients in Q4 (fast progressors), relative to sham [3, 7]: 43%
increase of patients in Q1 (slow progressors), relative to sham [3, 7]: 83%

From US20250000936A1, “TREATMENT OF GEOGRAPHIC ATROPHY” (Apellis Pharmaceuticals, Inc., priority 2021, published 2025)
